Data on 6 compounds can be found in paper PMC6271701, “An Unusual 2,3-Secotaraxerene and Other Cytotoxic Triterpenoids from Pleiocarpa pycnantha (Apocynaceae) Leaves Collected from Nigeria” (Molecules, 2014).

SMILES strings stand for the structures.

The subject of one data set is HeLa cells. The experiment in a line: WST-1 cytotoxicity assay, HeLa cells. In kind it is cell-based, human. As to conditions: for IC50: WST-1 assay, 24 h treatment; for SI HeLa: Selectivity Index = IC50(KMST-6)/IC50(HeLa). The protocol:
(§1) HeLa, HT-29, MCF-7 and KMST-6 cells were prepared from our laboratory stocks. Briefly, cell monolayers were maintained in Dulbecco’s modified Eagle’s (DMEM, Lonza Group Ltd., Base, Switzerland) medium with phenol red supplemented with 10% foetal bovine serum (FBS, Biochrom AG, Berlin, Germany) and 1% Penicillin–streptomycin (Lonza Group Ltd.). All cells were maintained in a humidified incubated at 37 °C in an atmosphere of 5% CO2. The cells were harvested using trypsin (Lonza Group Ltd.), and viable cell concentrations were determined using the Countess® Automated Cell Counter (Invitrogen, CA, USA). 5 × 10^4 viable cells were added to each well of a 96-well tissue culture plate and incubated overnight at 37 °C under 5% CO2 in a humidified incubator to allow cells to attach to wells.
(§2) Cell viability was measured using the WST-1 assay (Roche Diagnostics GmbH, Mannheim, Germany) as previously described by Ngamwongsatit et al., 2008. Cells were plated in 96-well cell culture plates at a concentration of 5 × 10^4 cells/well in 100 µL culture medium. After 24 h the cells were treated with increasing concentrations of ethanol extract (0–2 mg/mL), fractions (0–2 mg/mL) and purified compounds (0–250 µg/mL) for a further 24 h. The extracts, fractions and compounds were prepared in DMSO and then mixed with the culture medium. The final concentrations of the DMSO were less than 0.1%. Following 24 h treatment, 10 µL of cell proliferation reagent WST-1 was added and the plates were incubated for 4 h at 37 °C under 5% CO2 in a humidified incubator. The plates wereshakenfor 1 min on a shaker and the absorbance of the samples were measured at 450 nm (reference wavelength was 750 nm) on a micro-plate reader. The cell viability was calculated using the following formula: % Viability = ODtreated well − ODblank/ODuntreated well − ODblank(1) IC50 values were calculated using Prism Graph pad software. Triplicate experiments were conducted and the results expressed as mean ± SEM.
On the technique in general: Tetrazolium dyes change colour on reduction, which living cells bring about.

A further data set relates to HT-29 cells. The experiment in a line: WST-1 cytotoxicity assay, HT-29 cells. The data set is classed as cell-based, human. As to conditions: for IC50: WST-1 assay, 24 h treatment; for SI HT-29: Selectivity Index = IC50(KMST-6)/IC50(HT-29). The protocol: as §1, §2
The subject of a further data set is MCF-7 cells. The experiment in a line: WST-1 cytotoxicity assay, MCF-7 cells. In kind it is cell-based, human. The following applies: for IC50: WST-1 assay, 24 h treatment; for SI MCF-7: Selectivity Index = IC50(KMST-6)/IC50(MCF-7). The protocol: as §1, §2
The next data set deals with KMST-6 cells. Briefly: WST-1 cytotoxicity assay, non-cancerous KMST-6 fibroblasts. In kind it is cell-based, human. The following applies: WST-1 assay; for IC50: 24 h treatment, non-cancerous fibroblast. The protocol:
as §1, §2

The nature of data set [1]: E/Z isomer stability followed by 1H-NMR. In kind it is physicochemical. The following applies: 2–3 months under normal working conditions. From the text:
Triterpene esters containing the E-coumaric acid isomer have been reported from natural sources, while, the co-existence of E- and Z-coumaric acid esters of ursolic acid (compounds 2 and 3) in Plumeria obtusa of the same family has been reported once.

For data set [2], the system named is acetyl CoA cholestryl acyl tranferase (ACAT). The arrangement: method as in PMID 10425145. As to conditions: cited from earlier work.
Data set [3] in a line: Stability of the hydrolysed derivative in organic solvents. The data set is classed as physicochemical. As to conditions: organic solvents such as methanol and chloroform. The text has this:
Compound 4 was isolated as colourless needle-like crystals with molecular formula of C30H48O2 on the basis of TOF-ESI-MS m/z 441.3735[M+H]^+. […] The signal at δ 174.8 (C-2), 77.9 (C-3) in addition to oxygenated methylene protons at δ 3.79 and 4.08 (CH2-3) indicated the presence of a lactone group. […] The NMR data were assigned unambiguously from 2D NMR spectral analysis of compound 4 and its hydrolyzed product 5. The structure was finally established from X-ray diffraction studies. Figure 2 illustrates the perspective view of the molecule with its relative configuration. The compound was thus assigned as 2,3-seco-taraxer-14-en-2,3-lactone and given the name pycanocarpine. After alkaline hydrolysis, compound 4 produced the unstable derivative viz 2,3-seco-3-hydroxy-taraxer-14-en-3-oic acid (5) as an off-white amorphous powder. The TOF-ESI-MS indicated an m/z 459.3889 [M+H]^+. It was noticeable that the free carboxylic and hydroxyl groups would easily reform the lactone ring after a short time in organic solvents such as methanol and chloroform. The NMR data of 5 is similar to the parent compound 4 and is illustrated in Table 1. Minor changes were observed between 4 and 5 for carbons C-11, -23, -24, and -26. The stereochemistry of both compounds, especially ring A, may partially explain this. In 4 the carbonyl group is directed into the same plan similar to C-24, -26 and -11.

For data set [4], the system named is MCF-7 breast tumour cell line. The following applies: read-out: GI50 MCF-7; in vitro; cited from earlier work.
The subject of data set [5] is ME 180 cervical tumour cell line. The following applies: read-out: GI50 ME 180; in vitro; cited from earlier work.
For data set [6], the system named is PC3 prostate tumour cell line. As to conditions: read-out: GI50 PC3; in vitro; cited from earlier work.
The mark [7] stands for this setting: at the dosages used (0–250 µg/mL).

In general, IC50 refers to the concentration at which inhibition is half-maximal. Lower therefore signals higher potency. For the compound `C[C@H]1[C@H](C)CC[C@]2(C(=O)O)CC[C@]3(C)C(=CC[C@@H]4[C@@]5(C)CC[C@H](O)C(C)(C)[C@@H]5CC[C@]43C)[C@H]12` [Compound 1, ursolic acid], the IC50 worked out at 10 µM in the data set with HeLa cells (Homo sapiens, HeLa, 24 h); 10 µM in the data set on HT-29 cells (Homo sapiens, HT-29, 24 h); 20 µM in the data set on MCF-7 cells (Homo sapiens, MCF7, 24 h); 100 µM in the data set on KMST-6 cells (Homo sapiens, Fibroblast, 24 h). In the data set on HeLa cells, the “SI HeLa” value worked out at 10.0. In addition, the “SI HT-29” value in the data set with HT-29 cells amounted to 10.0. Further, the “SI MCF-7” value in the data set on MCF-7 cells amounted to 5.0.
Turning to `CC1CCC2(C(=O)O)CCC3(COC(=O)C=Cc4ccc(O)cc4)C(=CCC4C5(C)CCC(O)C(C)(C)C5CCC43C)C2C1C` (stereo not shown) [Compound 3, 27-p-Z-coumaroyloxyursolic acid], in the data set on HeLa cells, the “SI HeLa” value is on record as 1.5 and half-maximal inhibition (IC50) was put at 200 µM. Further, in the data set with HT-29 cells, the “SI HT-29” value is 1.3 and the IC50 is 230 µM. For the same compound, in the data set on MCF-7 cells, the “SI MCF-7” value is 1.7 and the IC50 amounted to 180 µM. Moreover, in the data set on KMST-6 cells, the “cytotoxicity to non-cancerous cell line KMST-6 (in words)” value is on record as “non- cytotoxic” and half-maximal inhibition (IC50) required 300 µM. Also, the “E/Z isomerization of the isomers (1H-NMR)” value in data set [1] is “did not observe any such change”. The “activity against ACAT (in words)” value in [2] is on record as “potent activity”.
By melting point is commonly meant the temperature of the solid-liquid transition. Consider `CC1(C)CCC2(C)CC=C3C(C)(CCC4C3(C)CCC3C(C)(C)COC(=O)CC34C)C2C1` (stereo not shown) [Compound 4, 2,3-seco-taraxer-14-en-2,3-lactone], for which the melting point fell in the range of 246 to 249 °C. The IC50 in the data set with HeLa cells (Homo sapiens, HeLa, 24 h) is over 600 µM. Moreover, the “cytotoxicity on HeLa cells (in words)” value in the data set on HeLa cells (setting [7]) was “did not show cytotoxicity”. Further, the IC50 with HT-29 cells (Homo sapiens, HT-29, 24 h) was over 600 µM. Also, the “cytotoxicity on HT-29 cells (in words)” value with HT-29 cells (setting [7]) was “did not show cytotoxicity”. The compound also gave an IC50 in the data set on MCF-7 cells (Homo sapiens, MCF7, 24 h) of 20 µM. In addition, in the data set on MCF-7 cells, the “SI MCF-7” value is listed as over 30. In the data set with KMST-6 cells (Homo sapiens, Fibroblast, 24 h), this compound yielded an IC50 of over 600 µM. In the data set with KMST-6 cells, the “cytotoxicity to non-cancerous cell line KMST-6 (in words)” value is given as “non- cytotoxic”.
Turning to `CC1(C)CC[C@]2(C)CC=C3[C@]4(C)CCC(C(C)(C)CO)[C@](C)(CC(=O)O)C4CC[C@@]3(C)C2C1` (stereo partly shown) [Compound 5, 2,3-seco-3-hydroxy-taraxer-14-en-3-oic acid], the melting point fell in the range of 237 to 241 °C. The compound also had an IC50 in the data set on HeLa cells (Homo sapiens, HeLa, 24 h) of 180 µM. Also, the “SI HeLa” value in the data set with HeLa cells is recorded as 0.06. The IC50 in the data set on HT-29 cells (Homo sapiens, HT-29, 24 h) is 170 µM. Also, the “SI HT-29” value in the data set with HT-29 cells is on record as 0.06. This compound also registered an IC50 in the data set with MCF-7 cells (Homo sapiens, MCF7, 24 h) of 10 µM. The “SI MCF-7” value with MCF-7 cells was 1. Also, the 50% inhibitory concentration (IC50) in the data set on KMST-6 cells (Homo sapiens, Fibroblast, 24 h) came out at 10 µM. Moreover, the “stability (re-lactonisation)” value in data set [3] is listed as “unstable”.
What is called GI50 is the concentration giving 50% growth inhibition. Consider `C[C@H]1[C@H](C)CC[C@]2(C(=O)O)CC[C@]3(C)C(=CC[C@@H]4[C@@]5(C)CC[C@H](OC(=O)/C=C\c6ccc(O)cc6)C(C)(C)[C@@H]5CC[C@]43C)[C@H]12` (relative stereo) [cis-3-O-p-hydroxycinnamoyl ursolic acid], for which the GI50 in data set [4], in [5] and in data set [6] was about 20 µM each time.
`CC1CCC2(C(=O)O)CCC3(COC(=O)C=Cc4ccc(O)cc4)C(=CCC4C5(C)CCC(O)C(C)(C)C5CCC43C)C2C1C` (stereo not shown) [Compound 2, 27-p-E-coumaroloxyursolic acid]: in the data set with HeLa cells, the “SI HeLa” value is on record as 2 and 50 µM corresponded to half-maximal inhibition (IC50). In the data set with HT-29 cells, the “SI HT-29” value was 1 and the IC50 amounted to 100 µM. Further, in the data set on MCF-7 cells, the “SI MCF-7” value stood at 1.7 and the IC50 amounted to 60 µM. The compound further yielded an IC50 with KMST-6 cells of 100 µM. For the same compound, the “E/Z isomerization of the isomers (1H-NMR)” value in [1] is given as “did not observe any such change”.
